The assay concerns the target CFTR (Homo sapiens, UniProt P13569, G551D). Kind of assay: Ussing chamber short-circuit current, FRT cells. Type of assay: cell-based.

Sequence of CFTR (P13569 whole entry G551D): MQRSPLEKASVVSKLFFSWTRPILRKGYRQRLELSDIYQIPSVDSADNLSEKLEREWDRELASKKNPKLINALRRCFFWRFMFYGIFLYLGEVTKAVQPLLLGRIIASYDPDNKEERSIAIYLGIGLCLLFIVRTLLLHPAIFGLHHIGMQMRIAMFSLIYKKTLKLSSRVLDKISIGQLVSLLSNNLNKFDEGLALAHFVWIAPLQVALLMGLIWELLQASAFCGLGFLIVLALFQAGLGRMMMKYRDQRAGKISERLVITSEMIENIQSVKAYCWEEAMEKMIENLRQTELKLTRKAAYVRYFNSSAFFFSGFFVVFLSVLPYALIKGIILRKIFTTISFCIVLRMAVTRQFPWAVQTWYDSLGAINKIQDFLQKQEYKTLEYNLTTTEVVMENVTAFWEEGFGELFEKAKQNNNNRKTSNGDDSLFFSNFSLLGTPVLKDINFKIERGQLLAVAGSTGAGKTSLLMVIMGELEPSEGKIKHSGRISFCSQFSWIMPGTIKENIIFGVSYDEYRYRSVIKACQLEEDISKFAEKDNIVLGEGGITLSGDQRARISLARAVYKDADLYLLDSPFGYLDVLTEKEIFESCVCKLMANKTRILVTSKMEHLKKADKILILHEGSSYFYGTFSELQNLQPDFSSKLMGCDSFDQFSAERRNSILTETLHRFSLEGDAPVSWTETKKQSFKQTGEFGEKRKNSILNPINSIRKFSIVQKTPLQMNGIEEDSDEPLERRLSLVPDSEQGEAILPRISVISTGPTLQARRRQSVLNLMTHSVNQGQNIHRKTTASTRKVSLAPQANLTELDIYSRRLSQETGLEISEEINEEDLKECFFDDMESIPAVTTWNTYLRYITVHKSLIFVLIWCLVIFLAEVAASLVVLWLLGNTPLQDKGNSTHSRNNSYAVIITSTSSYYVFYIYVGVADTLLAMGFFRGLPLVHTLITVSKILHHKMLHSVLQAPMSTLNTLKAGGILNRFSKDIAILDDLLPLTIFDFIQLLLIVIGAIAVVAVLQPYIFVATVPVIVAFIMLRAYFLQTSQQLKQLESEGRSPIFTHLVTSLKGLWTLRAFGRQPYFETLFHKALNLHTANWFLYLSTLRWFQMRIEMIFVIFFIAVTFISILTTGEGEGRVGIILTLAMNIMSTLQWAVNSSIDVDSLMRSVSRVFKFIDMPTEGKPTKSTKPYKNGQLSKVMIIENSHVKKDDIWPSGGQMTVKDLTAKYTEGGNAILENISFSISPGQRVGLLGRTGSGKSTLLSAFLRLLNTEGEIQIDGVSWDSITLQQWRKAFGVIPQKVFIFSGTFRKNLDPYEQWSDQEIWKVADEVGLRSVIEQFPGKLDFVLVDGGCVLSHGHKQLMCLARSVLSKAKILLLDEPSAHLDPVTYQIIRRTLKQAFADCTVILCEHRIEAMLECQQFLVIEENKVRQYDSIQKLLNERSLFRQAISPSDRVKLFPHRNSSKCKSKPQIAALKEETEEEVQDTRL

For `CC(C)(C)c1cc(C(C)(C)C)c(NC(=O)c2c[nH]c3ccccc3c2=O)cc1O` [VX-770], the “Ussing chamber short-circuit current, FRT cells” value is “In terms of efficacy as a single agent, uHTS159 is roughly equivalent to VX-770”.

Source of the values: publication PMC13267069 (npj Drug Discovery, 2025).
